Entries after “also recorded” stand apart in the source; their conditions may differ.
Experiments:
[1] = test system: SARS-CoV-2; experiment: K18-hACE2 mice infected with SARS-CoV-2 (wild type), lung viral titer and viral protein; type: in vivo
[2] = test system: IL-6, IL-10; type: cell-based, human
[3] = test system: cleaved caspase 3; type: cell-based, human; settings: methanesulfonate
[4] = test system: icSARS-CoV-2-mNG; type: cell-based, SARS-CoV-2
[5] = test system: IFN-β, IFN-λ; type: cell-based, human; settings: infected Calu3, 48 hpi, Mito-MES 100-1000 nM; methanesulfonate
[6] = test system: MAVS, TOM70, STING, MX1; experiment: MAVS, TOM70, STING and MX1 protein levels in Calu3 cells, flow cytometry and immunofluorescence; type: cell-based, human
[7] = test system: IL-6, IL-1β, IL-8, IL-10, TNF-α; type: cell-based, human
[8] = test system: SARS-CoV-2; type: cell-based
[9] = cited from earlier work
[10] = test system: Nrf2, Keap1, HO-1; experiment: Nrf2, Keap1 and HO-1 protein levels in Calu3 cells, flow cytometry; type: cell-based, human; settings: infected and uninfected Calu3
[11] = test system: SARS-CoV-2; experiment: SARS-CoV-2 replication in human airway epithelial (HAE) air-liquid interface cultures, flow cytometry; type: cell-based
[12] = test system: IL-6; type: cell-based, African green monkey; settings: Mito-MES 10-1000 nM, 4F 10 μM
[13] = test system: SARS-CoV-2 wild type (WT); experiment: Lung inflammation in K18-hACE2 mice infected with SARS-CoV-2 wild type (cohort A, 3 dpi); type: in vivo
[14] = test system: mitochondrial reactive oxygen species (mito-ROS); experiment: Mitochondrial reactive oxygen species (MitoSOX Red) and ROS content in Calu3 cells; settings: 1000 nM Mito-MES; methanesulfonate
Method: Flow cytometry was used to determine the cellular content of Calu3 cells for mitochondrial reactive oxygen species (mito-ROS) based on the median fluorescence intensity (MFI) of the fluorochrome MitoSOX Red and was compared to a negative cell population (fluorescence minus one negative control for staining) (ΔMFI). Flow cytometry was used to determine the percent of SARS-CoV-2 infected Calu3 cells positive for MitoSOX Red. Calu3 and Vero cells were treated with DMSO vehicle control (Ctrl) or the mitochondrial antioxidants MitoTEMPO (25-1000 nM) (72 h) or Mito-MES (25-1000 nM) (72 h) and were infected with a fluorescent mNeonGreen SARS-CoV-2 (icSARS-CoV-2-mNG) (MOI 0.3) (48 h). Immunofluorescent analysis of viral replication and cellular oxidative stress was performed at 48 hpi. […] Viral replication was determined by TCID50-assay (FIG. 3-d), cell cytotoxicity was assessed by the XTT assay in uninfected cells treated with dTPP (0.01-10 μM) (72 h) (FIG. 3-e). […]
After 24 h (or 48 h, experiments involving 4F) post-infection, cells were collected and stained with 5 μM MitoSOX Red Mitochondrial reactive oxygen species (mito-ROS) indicator for 30 min at 37° C. […] Cells were then analyzed using an LSR Fortessa flow cytometer and FACSDiva software (Becton & Dickinson, San Diego, Calif., USA), and data were analyzed using FlowJo software.

SMILES: COC1=C(OC)C(=O)C(CCCCCCCCCC[P+](c2ccccc2)(c2ccccc2)c2ccccc2)=C(C)C1=O.CS(=O)(=O)[O-] [Mito-MES, 10-(4,5-dimethoxy-2-methyl-3,6-dioxo-1,4-cyclohexadienyl) decyl triphenylphosphonium methanesulfonate]
- reduction in SARS-CoV-2 viral titers in the lungs relative to vehicle ([1]; 4 mg/kg i.p. from 24 hours before infection, once per day): ~2 log units
- reduction in SARS-CoV-2 viral titers in the lungs relative to vehicle ([1]; 4 mg/kg, 8 hours after infection): 1.5 log units
- SARS-CoV-2 N protein among lung cell subtypes, flow cytometry ([1]; 3 dpi): had anti-SARS-CoV-2 activity in EPCAM(+) lung epithelial cells
- viral titers compared to controls (vehicle) ([1]; K18-hACE2 mice, 4 mg/kg per day intraperitoneally, 72 hpi): viral titers were lower
- reduction of the replication of SARS-CoV-2 ([1]; K18-hACE2 mice, overall): at least 2 orders of magnitude
- secretion / release of IL-6 [2]: attenuated SARS-CoV-2-induced increase in secretion of IL-6
- secretion of IL-10 [2]: reduced secretion of IL-10
- SARS-CoV-2-induced cleavage of caspase 3, immunofluorescence ([3]; Calu3, Mito-MES 10-1000 nM): reduced SARS-CoV-2-induced increase in cleavage of caspase 3; also recorded: reduced by Mito-MES treatment
- percent of infected cells positive for cleaved caspase 3 and MFI of cleaved caspase 3 per cell, flow cytometry ([3]; Calu3, Mito-MES 100 nM, 4F 10 μM): attenuated SARS-CoV-2-induced increase; also recorded: inhibits or reduces SARS-CoV-2-induced increase
- antiviral activity against fluorescent SARS-CoV-2 [4]: potent and similar antiviral activity
- secreted and cellular IFN-β and IFN-λ [5]: did not impact increase in secreted and cellular IFN-β
- MX1 protein levels ([6]; Calu3, flow cytometry, 4F 10 μM): increased MX1 protein levels
- STING protein levels ([6]; infected Calu3, flow cytometry, methanesulfonate): did not impact stimulator of interferon genes (STING)
- TOM70 protein levels, immunofluorescence ([6]; infected Calu3 vs vehicle, methanesulfonate): confirmed by immunofluorescence; also recorded: dose-dependent increase in TOM70 protein levels
- MAVS protein levels ([6]; total and infected Calu3, flow cytometry, methanesulfonate): no impact; also recorded: did not modulate MAVS protein levels
- TOM70 protein levels, flow cytometry ([6]; total and infected Calu3, methanesulfonate): increased the translocase of the outer membrane 70 (TOM70) protein levels
- secretion of IL-10, Luminex [7]: tended (p=0.09) to reduce the secretion of IL-10
- release of progeny SARS-CoV-2 virus particles to the cell supernatant, TCID50 assay [8]: reduction in subsequent release of progeny SARS-CoV-2 virus particles
- IC50 against SARS-CoV-2 compared to remdesivir, TCID50 assay ([8]; Vero E6): three orders of magnitude lower
- percent of cells positive for SARS-CoV-2 N and Spike S proteins, flow cytometry ([8]; Vero cells, methanesulfonate): reduced the percent of cells that were positive for SARS-CoV-2 N and Spike S proteins; also recorded: reduced the percent of infected cells that were positive for N protein
- antiviral activity by immunofluorescence and qPCR ([8]; methanesulfonate): confirmed by immunofluorescence (IF) detection of SARS-CoV-2 and by qPCR; also recorded: modest antiviral activity
- average elevation of fasting plasma concentrations ([9]; 40-80 mg/day, after about 10 days): about 5 ng/mL
- plasma concentration after 24 h ([9]; humans, single 40 mg oral dose): about 2 ng/ml
- maximal plasma concentration ([9]; humans, single 80 mg oral dose): 33 ng/mL
- time of maximal plasma concentration ([9]; humans, single 80 mg oral dose): about 1 h
- protein levels of Nrf2 [10]: did not impact protein levels of Nrf2
- protein levels of Keap (Keap1) ([10]; methanesulfonate): reduced protein levels of the endogenous Nrf2 inhibitor, Keap1; also recorded: reduced protein levels of Keap
- Viral replication by flow cytometry in human airway epithelial cells ([11]; 1 μM Mito-MES, Control 20.0%, MOI 0.1): 0.4%
- percent of SARS-CoV-2 infected human lung epithelial cells, flow cytometry ([11]; HAE ALI cultures, 100 nM Mito-MES): significantly reduced the percent of SARS-CoV-2 infected human lung epithelial cells
- percent of SARS-CoV-2 infected FOXJ1+ ciliated epithelial cells, flow cytometry ([11]; HAE ALI cultures, methanesulfonate): significantly reduced the percent of human FOXJ1 (forkhead box J1) positive ciliated epithelial cells infected with SARS-CoV-2
- SARS-CoV-2-induced secretion of IL-6 [12]: attenuated the increase in secretion of IL-6
- reduction in IL-6 in the lungs, Luminex ([13]; 4 mg/kg i.p. daily, 3 dpi): at least 2 orders of magnitude
- reduction in IL-lb in the lungs, Luminex ([13]; 4 mg/kg i.p. daily, 3 dpi): at least 2 orders of magnitude
- frequency of CD45+ immune cells in lungs, flow cytometry ([13]; 3 dpi): reduced frequency of CD45+ immune
- frequency of NK cells in lungs ([13]; 3 dpi): reduced frequency of NK cells
- levels of TNFa ([13]; WT SARS-CoV-2): did not change
- protein levels of IL-18 ([13]; cohort A and cohort B): did not change protein levels of IL-18
- frequency of neutrophils, macrophages, myeloid DCs, lymphoid DCs, T cells, B cells ([13]; lungs, flow cytometry): did not alter frequency
- ROS content of Calu3 cells [14]: increased the ROS content of Calu3 cells
